Experimental findings from US20050152906A1, “Specific human antibodies” (priority 2003, published 2005) are described below.

Ends that are not written are not given here. * marks the point of attachment. SO3H = O=S(=O)(O)*

Data set [1] in a line: Storage stability. Type of data set: physicochemical. Particulars: under argon at −20° C. As to the method:
After reaction with acetic acid, the resulting free base was isolated as its solid acetate salt followed by lyophilization. M-DNR-Ac is stable for at least 12 months under argon at −20° C.
The methanolic solution was evaporated to dryness under reduced pressure at 25° C., resulting in a red oily residue, which was dissolved in dry methanol. To this solution, dry ether was added and the precipitated red solid isolated by centrifugation. […] (6-Maleimidocaproyl)hydrazone of Morphlinyldaunorubicin acetate is stable for at least 4 months under argon at −20° C.

The test system of data set [2] is primary AML cells. The data set can be described thus: Semisolid clonogenic assay, primary AML patient samples. Type of data set: cell-based, human. As for the experimental part:
3.2 Cytotoxicity of Y1-IgGM-DNR Derivative (FIG. 12-14): The specific cytotoxic effect of Y1-drug conjugates was assessed in semisolid (METHOCULT™; StemCell Technologies Inc., Vancouver BC, Canada) clonogenic assays. Cells (CD34+ stem cells from cord blood or primary AML patient samples) were incubated with free or conjugated drugs at concentrations of up to 10^−6M for 1 hour at 37° C. The cells were washed, seeded in METHOCULT™ and grown for 10-12 days, after which colonies were counted. Bovine (b)-IgG-M-DNR was used as a non-specific conjugate control.

For data set [3], the system named is primary B-CLL cells. Briefly: CDC against mononuclear cells from B-CLL patients. The class given is cell-based, human. Particulars: presence and absence of 25% of the patients' plasma. As for the experimental part: For CDC experiments, mononuclear cells from B-CLL patients were separated on FICOLL®. Cells were incubated with or without Y1-IgG or control antibodies for 24 hours in the presence or absence of the patient's plasma. Apoptotic cells were then stained with Annexin-PI and analyzed by FACS.
Mononuclear cells from B-CLL patients were incubated with Y1-IgG, Rituximab or Campath® in the presence and absence of 25% of the patients' plasma. […] Neither Rituximab nor Y1-IgG induced cytotoxicity via complement fixation.

Data set [4] concerns Y1-scFv binding to platelets. The data set can be described thus: Y1-scFv platelet binding assay, inhibition by synthetic GPIb peptides. As for the experimental part:
Briefly, peptides were synthesized by solid phase methodology using an ABIMED AMS-422 multiple peptide synthesizer, and as required, tyrosine sulfate was incorporated using FMOC-Try sodium salt. Synthetic peptides were purified using a Lichrosorb RP-18 column. For the Y1-scFv platelet binding assay, a mixture of synthetic peptide (2.5, 25 or 200 μM) and Y1-scFv (10 μg) was incubated with […]. Following washing, platelets were incubated with R-phycoerythrin labeled-anti scFv, washed and analyzed by FACS.

The test system of data set [5] is primary B-CLL cells. Briefly: Y1-IgG-mediated ADCC by PBMC effector cells against primary B-CLL cells. The class given is cell-based. As for the experimental part:
For ADCC experiments, mononuclear effector and target cells were separated on FICOLL®. Target cells were then labeled with PKH26, which stably incorporates a fluorescent dye within the lipid regions of the cell membranes. Cells were then washed and incubated with effector cells at various Effector:Target (E:T) ratios, in the absence or presence of different concentrations of Y1-IgG or control antibodies for 24 hours. Dead cells were stained by TOPRO®(Molecular Probes, Inc., Eugene, Oreg.): and analyzed by FACS on gated target cells.
To determine if Y1-IgG mediates ADCC in primary B-CLL, B-CLL cells from different patients were co-incubated for 24 hours with PBMC effector cells at different effector/target cell ratios. […] Variation may be attributed to the effector cell samples obtained from different healthy donors, as well as to differences among the B-CLL samples.

The target of data set [6] is PSGL-1 (P-Selectin Glycoprotein Ligand-1) (human) (UniProt Q14242). Briefly: cell-based or functional assay.
Where [7] appears, read: substitution mutant peptides based on DLY^SDYYPE (FIG. 17B), concentration not given.

UniProt Q14242, sequence (Q14242 42-412): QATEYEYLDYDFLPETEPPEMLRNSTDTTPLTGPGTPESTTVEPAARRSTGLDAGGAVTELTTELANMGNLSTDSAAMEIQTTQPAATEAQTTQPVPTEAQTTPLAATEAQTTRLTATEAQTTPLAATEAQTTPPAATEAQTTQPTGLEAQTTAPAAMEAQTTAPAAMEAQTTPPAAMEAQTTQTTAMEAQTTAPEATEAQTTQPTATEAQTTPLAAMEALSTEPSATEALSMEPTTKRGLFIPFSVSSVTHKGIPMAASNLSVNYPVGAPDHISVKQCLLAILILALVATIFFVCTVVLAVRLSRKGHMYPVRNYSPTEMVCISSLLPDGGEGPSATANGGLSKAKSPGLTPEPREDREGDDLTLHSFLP

`CC(=O)O.COc1cccc2c1C(=O)c1c(O)c3c(c(O)c1C2=O)C[C@@](O)(C(C)=NNC(=O)CCCCCN1C(=O)C=CC1=O)C[C@@H]3O[C@H]1C[C@H](N2CCOCC2)[C@H](O)[C@H](C)O1` [(6-Maleimidocaproyl)hydrazone of Morphlinyldaunorubicin acetate]: the “stable for” value in data set [1] is recorded as “at least 4 months”. Turning to `COc1cccc2c1C(=O)c1c(O)c3c(c(O)c1C2=O)C[C@@](O)(C(C)=O)C[C@@H]3O[C@H]1C[C@H](N2CCOCC2)[C@H](O)[C@H](C)O1` [M-DNR, 3′-Deamino-3′-(4-morpholinyl)daunorubicin], in data set [2] (1 μM), the “colony formation relative to control, AML-M4 cells” value is listed as “did not give rise to colonies” and the “colony formation relative to control, AML-M5 cells” value was “did not give rise to colonies”. In addition, in data set [2] (AML sample M7 megakaryocytic leukemia, 0.1 μM), the “viability of primary AML cells relative to the control” value was 80%. For the compound `CC(=O)O.COc1cccc2c1C(=O)c1c(O)c3c(c(O)c1C2=O)C[C@@](O)(C(C)=O)C[C@@H]3O[C@H]1C[C@H](N2CCOCC2)[C@H](O)[C@H](C)O1` [M-DNR-Ac, 3′-Deamino-3′-(4-morpholinyl)daunorubicin acetate], the “stable for” value in data set [1] is listed as “at least 12 months”.

Turning to “Campath®: commercially available humanized antibody which binds CD52”, the “cytotoxicity via CDC” value in data set [3] is listed as “mediated cytotoxicity of primary B-CLL cells via CDC”.

Consider “DAY^SDYYPE (DAY(SO3H)DYYPE) [Leu-275 replaced by Ala]”, for which the “inhibition of Y1-scFv binding to platelets” value (“inhibition of Y1-scFv binding” for short) in data set [4] (setting [7]) was “inhibited Y1-scFv binding to platelets”. Regarding “DLEDYYPE [sulfated Tyr-276 replaced with Glu]”, the “inhibition of Y1-scFv binding” value in data set [4] (setting [7]) is on record as “no substantial inhibition”. Consider DLYDYYPE [non-sulfated control peptide], for which the “inhibition of Y1-scFv binding” value in data set [4] (peptide 200 μM) is reported as “no effect”. Same read-out and setting: under “DLYDYY^SPE (DLYDYYPE; not fully specified (residue 6)) [sulfated at the third tyrosine]” stands “no effect”; under “DLYDY^SY^SPE (DLYDY(SO3H)Y(SO3H)PE) [sulfated at the second and third tyrosines]”, “no effect”. As for “DLY^SAYYPE (DLY(SO3H)AYYPE) [Asp-277 replaced by Ala]”, the “inhibition of Y1-scFv binding” value in data set [4] (setting [7]) is recorded as “substantially incapable of inhibiting”. On the same count and under the same terms, under “DLY^SDAYPE (DLY(SO3H)DAYPE) [substitution mutant peptide, amino acids 278 to 280]” stands “inhibited Y1-scFv binding to platelets”.

Take “DLY^SDFYPE (DLY(SO3H)DFYPE) [substitution mutant peptide, amino acids 278 to 280]”: the “inhibition of Y1-scFv binding” value in data set [4] (setting [7]) is given as “inhibited Y1-scFv binding to platelets”. Still for that read-out and setting: under “DLY^SDYYAE (DLY(SO3H)DYYAE) [substitution mutant peptide, amino acids 278 to 280]” stands “inhibited Y1-scFv binding to platelets”.

Consider “DLY^SDYYPA (DLY(SO3H)DYYPA) [substitution mutant peptide, amino acids 278 to 280]”, for which the “inhibition of Y1-scFv binding” value in data set [4] (setting [7]) is listed as “inhibited Y1-scFv binding to platelets”. Turning to “DLY^SDYYPE (DLY(SO3H)DYYPE) [sulfated at the first tyrosine]”, in data set [4] (peptide 25 μM), the “inhibition of Y1-scFv binding” value was “effectively inhibited”. On the same count and under the same terms, next, “DLY^SDYY^SPE (DLY(SO3H)DYY(SO3H)PE) [sulfated at the first and third tyrosines]”: “effectively inhibited”. Same read-out and setting: next, “DLY^SDY^SYPE (DLY(SO3H)DY(SO3H)YPE) [sulfated at the first and second tyrosines]”: “effectively inhibited”. Still for that read-out and setting: under “DLY^SDY^SY^SPE (DLY(SO3H)DY(SO3H)Y(SO3H)PE) [GPIb-based peptide comprising 3 sulfated tyrosines]” stands “effectively inhibited”.

For “DLY^SEYYPE (DLY(SO3H)EYYPE) [Asp-277 replaced by Glu]”, the “inhibition of Y1-scFv binding” value in data set [4] (setting [7]) is recorded as “substantially incapable of inhibiting”. For “DLY^SNYYPE (DLY(SO3H)NYYPE) [Asp-277 replaced by Asn]”, the “inhibition of Y1-scFv binding” value in data set [4] (setting [7]) is “substantially incapable of inhibiting”. “Rituximab: commercially available humanized antibody which binds CD20”: the “concentration at which saturation of receptor molecules on the target cells was achieved” value in data set [5] is reported as “not by the same concentration”. The “cytotoxicity via CDC” value in data set [3] is recorded as “Neither”.

Consider mouse anti-PSGL-1 antibody KPL1, for which the inhibition of ML2 cell rolling on rh-P-Selectin (1 µg/ml) at all shear forces in data set [6] turned out to be 100%.
